Assay results reported in patent publication US20210070748A1, “INHIBITORS OF BRUTONS TYROSINE KINASE” (Pharmacyclics LLC, priority 2015, published 2021).

Experiments:
Type in all cases: biochemical
BTK-WT = molecular target: T1, BTK-WT (Homo sapiens, UniProt Q06187); experiment: Btk in vitro inhibitory activity (one of Method A TR-FRET, Method B electrophoretic mobility shift, Method C radiometric filter binding); conditions: E compounds, Table 17; read-out: IC50 BTK-WT
T1 construct: purified from insect cells as a full-length construct containing an N-terminal 6X-His tag; His6 (N); made in house; host or cells: insect cells (baculovirus Sf21 in Method B)
T1 sequence (Q06187 whole entry): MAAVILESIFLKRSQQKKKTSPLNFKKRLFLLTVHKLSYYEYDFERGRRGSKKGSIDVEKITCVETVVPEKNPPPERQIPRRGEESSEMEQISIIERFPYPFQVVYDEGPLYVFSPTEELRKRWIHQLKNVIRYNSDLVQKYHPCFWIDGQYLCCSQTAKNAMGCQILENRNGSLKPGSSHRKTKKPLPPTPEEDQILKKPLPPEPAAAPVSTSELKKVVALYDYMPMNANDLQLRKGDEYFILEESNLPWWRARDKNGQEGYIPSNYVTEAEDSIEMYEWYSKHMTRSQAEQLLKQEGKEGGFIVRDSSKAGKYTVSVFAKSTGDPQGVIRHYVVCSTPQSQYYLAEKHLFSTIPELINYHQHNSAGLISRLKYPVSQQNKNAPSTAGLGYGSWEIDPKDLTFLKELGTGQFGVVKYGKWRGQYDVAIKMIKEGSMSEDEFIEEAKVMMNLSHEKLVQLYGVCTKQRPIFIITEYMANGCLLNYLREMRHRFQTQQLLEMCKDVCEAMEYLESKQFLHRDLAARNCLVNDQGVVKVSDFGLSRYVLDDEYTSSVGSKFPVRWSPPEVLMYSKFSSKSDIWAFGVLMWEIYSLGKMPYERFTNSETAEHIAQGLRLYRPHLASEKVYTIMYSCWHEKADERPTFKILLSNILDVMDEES

LCK = LCK (Homo sapiens, UniProt P06239); experiment: Inhibition of a panel of kinases, in vitro HotSpot kinase assay: LCK; conditions: E compounds, Table 17; read-out: IC50 LCK
Chain of LCK (P06239 whole entry): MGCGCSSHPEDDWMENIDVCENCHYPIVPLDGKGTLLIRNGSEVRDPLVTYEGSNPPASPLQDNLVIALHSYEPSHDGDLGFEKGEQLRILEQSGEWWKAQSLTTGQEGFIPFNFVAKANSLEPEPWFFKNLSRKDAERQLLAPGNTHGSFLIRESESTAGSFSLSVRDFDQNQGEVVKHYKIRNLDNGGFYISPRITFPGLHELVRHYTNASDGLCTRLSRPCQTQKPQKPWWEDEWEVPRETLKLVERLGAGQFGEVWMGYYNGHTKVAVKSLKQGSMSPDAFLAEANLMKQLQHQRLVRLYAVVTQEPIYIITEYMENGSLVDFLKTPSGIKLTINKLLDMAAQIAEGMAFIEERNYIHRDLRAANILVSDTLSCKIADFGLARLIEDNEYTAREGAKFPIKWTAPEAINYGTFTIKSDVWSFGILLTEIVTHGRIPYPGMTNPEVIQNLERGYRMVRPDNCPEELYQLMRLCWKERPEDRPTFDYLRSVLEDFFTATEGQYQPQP

ITK = molecular target: T2, ITK (Homo sapiens, UniProt Q08881); experiment: Inhibition of a panel of kinases, in vitro HotSpot kinase assay: ITK; conditions: E compounds, Table 17
T2 sequence (Q08881 1-620): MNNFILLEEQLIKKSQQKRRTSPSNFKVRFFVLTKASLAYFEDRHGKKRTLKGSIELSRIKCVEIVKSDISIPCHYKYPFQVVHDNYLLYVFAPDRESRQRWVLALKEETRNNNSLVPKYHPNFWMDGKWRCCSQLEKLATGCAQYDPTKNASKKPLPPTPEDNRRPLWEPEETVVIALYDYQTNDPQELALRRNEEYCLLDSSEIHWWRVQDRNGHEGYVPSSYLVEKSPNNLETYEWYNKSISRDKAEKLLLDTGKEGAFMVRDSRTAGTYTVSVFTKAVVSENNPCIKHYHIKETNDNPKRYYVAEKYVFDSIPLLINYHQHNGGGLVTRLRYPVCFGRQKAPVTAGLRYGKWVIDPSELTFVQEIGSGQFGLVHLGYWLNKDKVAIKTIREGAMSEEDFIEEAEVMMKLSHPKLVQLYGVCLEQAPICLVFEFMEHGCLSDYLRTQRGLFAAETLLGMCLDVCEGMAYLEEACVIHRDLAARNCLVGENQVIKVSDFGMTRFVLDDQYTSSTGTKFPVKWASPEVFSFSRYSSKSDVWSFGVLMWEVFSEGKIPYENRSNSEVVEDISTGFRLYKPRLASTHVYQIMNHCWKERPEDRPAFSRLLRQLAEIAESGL
Experimental: (§1) The degree of inhibition of a panel of kinases is determined using the in vitro HotSpot kinase assay (purified enzymes, ^33P-ATP, an appropriate substrate and 1 μM ATP).

EGFR = EGFR (Homo sapiens, UniProt P00533); experiment: Inhibition of a panel of kinases, in vitro HotSpot kinase assay: EGFR; conditions: E compounds, Table 17
Chain of EGFR (P00533 25-1210): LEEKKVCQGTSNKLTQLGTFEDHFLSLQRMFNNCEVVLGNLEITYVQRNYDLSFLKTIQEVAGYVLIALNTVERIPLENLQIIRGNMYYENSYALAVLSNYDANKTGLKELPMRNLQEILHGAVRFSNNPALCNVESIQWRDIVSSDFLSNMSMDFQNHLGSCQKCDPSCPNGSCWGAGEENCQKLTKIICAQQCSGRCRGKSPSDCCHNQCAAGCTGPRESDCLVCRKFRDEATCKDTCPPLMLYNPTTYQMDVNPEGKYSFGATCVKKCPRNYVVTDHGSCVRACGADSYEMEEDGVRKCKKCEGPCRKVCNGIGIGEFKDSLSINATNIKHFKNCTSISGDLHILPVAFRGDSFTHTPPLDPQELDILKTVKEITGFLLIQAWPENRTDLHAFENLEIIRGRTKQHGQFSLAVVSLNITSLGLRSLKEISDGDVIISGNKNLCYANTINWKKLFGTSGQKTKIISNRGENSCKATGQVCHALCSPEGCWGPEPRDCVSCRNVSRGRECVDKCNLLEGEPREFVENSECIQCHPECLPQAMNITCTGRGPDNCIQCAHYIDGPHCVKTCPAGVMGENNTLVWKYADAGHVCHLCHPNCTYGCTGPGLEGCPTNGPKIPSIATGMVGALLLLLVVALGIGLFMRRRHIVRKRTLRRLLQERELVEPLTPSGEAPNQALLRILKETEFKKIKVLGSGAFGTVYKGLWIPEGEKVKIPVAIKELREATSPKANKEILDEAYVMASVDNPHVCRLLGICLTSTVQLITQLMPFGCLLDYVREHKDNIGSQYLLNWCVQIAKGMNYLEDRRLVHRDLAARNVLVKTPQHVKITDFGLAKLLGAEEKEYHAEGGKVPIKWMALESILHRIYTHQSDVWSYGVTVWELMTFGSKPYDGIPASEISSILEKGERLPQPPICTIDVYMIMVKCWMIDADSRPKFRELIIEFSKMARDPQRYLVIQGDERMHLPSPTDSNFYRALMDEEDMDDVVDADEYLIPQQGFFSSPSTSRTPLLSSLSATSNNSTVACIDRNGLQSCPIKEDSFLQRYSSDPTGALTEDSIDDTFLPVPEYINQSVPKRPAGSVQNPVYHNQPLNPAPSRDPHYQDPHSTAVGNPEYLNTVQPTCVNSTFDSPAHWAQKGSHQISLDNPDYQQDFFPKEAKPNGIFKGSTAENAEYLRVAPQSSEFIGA
Experimental: as §1

SRC = SRC (Homo sapiens, UniProt P12931); experiment: Inhibition of a panel of kinases, in vitro HotSpot kinase assay: SRC; conditions: E compounds, Table 17
Chain of SRC (P12931 whole entry): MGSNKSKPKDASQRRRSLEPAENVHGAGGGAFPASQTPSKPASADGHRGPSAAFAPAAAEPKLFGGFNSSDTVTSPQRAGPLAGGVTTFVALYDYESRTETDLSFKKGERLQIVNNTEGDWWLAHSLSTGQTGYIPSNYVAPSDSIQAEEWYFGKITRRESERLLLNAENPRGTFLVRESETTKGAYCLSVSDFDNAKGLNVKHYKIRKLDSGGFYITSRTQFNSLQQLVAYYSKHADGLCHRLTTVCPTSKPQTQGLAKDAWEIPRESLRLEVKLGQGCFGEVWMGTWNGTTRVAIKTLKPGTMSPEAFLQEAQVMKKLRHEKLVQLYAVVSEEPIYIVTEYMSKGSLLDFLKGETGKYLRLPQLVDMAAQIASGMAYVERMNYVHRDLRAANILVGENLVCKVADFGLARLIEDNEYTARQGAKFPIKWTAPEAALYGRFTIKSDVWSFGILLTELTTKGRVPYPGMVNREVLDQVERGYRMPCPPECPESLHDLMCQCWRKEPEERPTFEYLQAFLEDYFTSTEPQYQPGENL
Experimental: as §1

TEC = molecular target: T3, TEC (Homo sapiens, UniProt P42680); experiment: Inhibition of a panel of kinases, in vitro HotSpot kinase assay: TEC; conditions: E compounds, Table 17
T3 sequence (P42680 1-631): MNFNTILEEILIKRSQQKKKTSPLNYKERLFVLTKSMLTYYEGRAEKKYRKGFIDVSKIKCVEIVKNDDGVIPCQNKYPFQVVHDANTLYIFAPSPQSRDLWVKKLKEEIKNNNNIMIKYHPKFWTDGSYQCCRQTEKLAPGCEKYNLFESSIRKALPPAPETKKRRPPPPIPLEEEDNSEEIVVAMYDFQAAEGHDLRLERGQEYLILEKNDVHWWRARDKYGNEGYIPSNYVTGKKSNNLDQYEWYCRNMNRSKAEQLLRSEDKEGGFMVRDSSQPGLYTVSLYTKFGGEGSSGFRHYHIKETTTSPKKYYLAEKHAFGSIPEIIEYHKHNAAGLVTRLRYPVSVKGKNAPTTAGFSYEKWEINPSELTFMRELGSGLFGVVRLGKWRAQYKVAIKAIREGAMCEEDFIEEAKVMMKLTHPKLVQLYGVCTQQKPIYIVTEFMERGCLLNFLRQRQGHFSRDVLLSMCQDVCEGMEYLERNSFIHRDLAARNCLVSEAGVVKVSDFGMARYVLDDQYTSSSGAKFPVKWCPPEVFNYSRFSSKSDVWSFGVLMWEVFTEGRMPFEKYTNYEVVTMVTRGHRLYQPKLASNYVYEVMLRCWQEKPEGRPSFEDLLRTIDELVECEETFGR
Experimental: as §1

| Compound | IC50 (BTK-WT) [nM] | IC50 (LCK) [nM] | IC50 (ITK) [nM] | IC50 (EGFR) [nM] | IC50 (SRC) [nM] | IC50 (TEC) [nM] |
| --- | --- | --- | --- | --- | --- | --- |
| C=CC(=O)N[C@@H]1CCCN(c2cnc(C(N)=O)c(Nc3cc(C)ns3)n2)[C@@H]1C [Example E-97, 5-((2R,3R)-3-acrylamido-2-methylpiperidin-1-yl)-3-(3-methylisothiazol-5-ylamino)pyrazine-2-carboxamide] | ≤ 10 | 100 to 1000 | 10 to 100 | 10 to 100 | ≤ 10 | ≤ 10 |
| C=CC(=O)N1CCC[C@@H](N(C)c2cnc(C(N)=O)c(Nc3ccc(C4(C)CCN(C5CCCC5)CC4)cc3)n2)C1 [Example E-103, (R)-5-((1-acryloylpiperidin-3-yl)(methyl)amino)-3-(4-(1-cyclopentyl-4-methylpiperidin-4-yl)phenylamino)pyrazine-2-carboxamide] | ≤ 10 | < 10 | ≤ 10 | ≤ 10 | ≤ 10 | ≤ 10 |
| C=CC(=O)N1CC[C@@H](N(C)c2cnc(C(N)=O)c(Nc3ccc(C4CCN(C5CCCC5)CC4)cc3)n2)C1 [Example E-109, (R)-5-((1-acryloylpyrrolidin-3-yl)(methyl)amino)-3-(4-(1-cyclopentylpiperidin-4-yl)phenylamino)pyrazine-2-carboxamide] | ≤ 10 | 100 to 1000 | ≤ 10 | 10 to 100 | 10 to 100 | ≤ 10 |
| C=CC(=O)N1CC[C@@H](N(C)c2cnc(C(N)=O)c(Nc3cnn(CCOC)c3)n2)C1 [Example E-110, (R)-5-((1-acryloylpyrrolidin-3-yl)(methyl)amino)-3-(1-(2-methoxyethyl)-1H-pyrazol-4-ylamino)pyrazine-2-carboxamide] | ≤ 10 | 1000 to 10000 | ≤ 10 | 100 to 1000 | 100 to 1000 | ≤ 10 |
| C=CC(=O)N1CC[C@@H](N(C)c2cnc(C(N)=O)c(Nc3ccc(C4CCN(C5CC5)CC4)cc3)n2)C1 [Example E-121, (R)-5-((1-acryloylpyrrolidin-3-yl)(methyl)amino)-3-(4-(1-cyclopropylpiperidin-4-yl)phenylamino)pyrazine-2-carboxamide] | ≤ 10 | 10 to 100 | ≤ 10 | ≤ 10 | 10 to 100 | ≤ 10 |
| C=CC(=O)N1CCC[C@@H](N(C)c2cnc(C(N)=O)c(Nc3ccc(C4CCN(C5CCCC5)CC4)cc3)n2)C1 [Example E-125, (R)-5-((1-acryloylpiperidin-3-yl)(methyl)amino)-3-(4-(1-cyclopentylpiperidin-4-yl)phenylamino)pyrazine-2-carboxamide] | ≤ 10 | 10 to 100 | ≤ 10 | 10 to 100 | ≤ 10 | ≤ 10 |
| C[C@@H]1[C@H](NC(=O)c2ccc(C3CC3)cc2)CCCN1c1cnc(C(N)=O)c(Nc2ccc(OC3CCN(C)C3)cc2)n1 (stereo partly drawn) [Example E-136, 5-((2R,3R)-3-(4-cyclopropylbenzamido)-2-methylpiperidin-1-yl)-3-((4-((1-methylpyrrolidin-3-yl)oxy)phenyl)amino) pyrazine-2-carboxamide] | ≤ 10 | 10 to 100 | 10 to 100 | 100 to 1000 | 10 to 100 | ≤ 10 |
| C[C@@H]1[C@H](NC(=O)c2ccc(C3CC3)cc2)CCCN1c1cnc(C(N)=O)c(Nc2ccc(N3CCN(C4CCCC4)C[C@@H]3C)cc2)n1 [Example E-137, 3-((4-((S)-4-cyclopentyl-2-methylpiperazin-1-yl)phenyl)amino)-5-((2R,3R)-3-(4-cyclopropylbenzamido)-2-methyipiperidin-1-yl)pyrazine-2-carboxamide] | ≤ 10 | 10 to 100 | 10 to 100 | 1000 to 10000 | 10 to 100 | 10 to 100 |
